Experimental data published in patent publication US7019194B2, “SCCE modified transgenic mammals and their use as models of human disease” (priority 2001, dated 2006).
Entries after “also recorded” stand apart in the source; their conditions may differ.

Test system: scce-transgenic mice
Test: Scratching behaviour (itch) in scce-transgenic mice for testing of antipruritic agents
Assay type: in vivo
Details: scce-transgenic mice 20-21 weeks; tube feeding, 30 μl of 1 mg/ml mixture (FIG. 8A), 90 μl 7 days later (FIG. 8B); versus sucrose control solution
Procedure: Scratching behavior of scce-transgenic (#1010) mice. Twenty one mice, (11 transgenes, 5 females; 10 wild type litter mates, 2 females) were observed every fifth day for 45 days, starting when the mice were 5-6 weeks of age. At each observation point mice were transferred to individual cages, and episodes of scratching with hind or front paws were counted during three 5-min periods with 2.5 min lapsing from the transfer to the cage to the first counting, and between counting periods. The results for the three observation periods were pooled and the number of episodes of scratching per min calculated. […]
Transgenic mice, 18-22 weeks of age, mean weight 24.2 g, were given subcutaneous injections of either 250 μg of the glucocorticoid triamcinolone acetonide in a total volume of 100 μl on day 0, and 100 μg triamcinolone acetonide in a total volume of 100 μl on days 7, 14 and 21, or 100 μl of physiological saline at the same time points. Episodes of scratching were counted in the morning and injections were given in the afternoon. […]
Transgenic mice 20-21 weeks of age, mean weight […], were given either loratidine in a total volume of 100 μl, or 100 μl of a control solution by means of tube feeding. Episodes of scratching were counted immediately before feeding (0 hours), and then at time points as indicated. […]

With CCOC(=O)N1CCC(=C2c3ccc(Cl)cc3CCc3cccnc32)CC1 [loratidine] the “effect on itch (frequency of scratching)” value was “no significant difference in frequency of scratching; also recorded: no statistically significant antipruritic effect; also recorded: no statistically significant differences in frequency of scratching”.
